# Assay results published in ChEMBL document CHEMBL1201862, “PubChem BioAssay data set” (2004).
# Where “and” joins values, the source holds several entries; their conditions need not be identical. Equal entries are not always repeated.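 Step 1: Grow cells in 96-well plates. Step 2: Expose to compound for 48 hours at 5 concentrations. Step 3: Interpolate endpoints linearly; if unreached, use highest concentration. The concentration for 50% growth inhibition is given as GI50.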 Calls of active or inactive are those of the source. Cut-off read from the data, not from the text of the source: active = GI50 up to about 1.1 µM and inactive = higher. Non-standard residues stand in square brackets, D forms with d. Residues, ends and D or L forms follow the SMILES beside them. *: point of attachment. NMeF = CN[CH](Cc1ccccc1)C(=O)O; NMeV = CN[CH](C(=O)O)C(C)C; Boc = CC(C)(C)OC(=O)*; OBn = c1ccc(CO*)cc1
# Key:
# Assay in all cases: DTP human tumour cell line panel, 48 h
# HL-60 = test system: HL-60
# NCI-H522 = test system: NCI-H522
# A549 = test system: A549
# LXFL 529 = test system: LXFL 529
# SNB-19 = test system: SNB-19
# SNB-75 = test system: SNB-75
# 786-0 = test system: 786-0
# SF-539 = test system: SF-539
# HOP-62 = test system: HOP-62
# SR = test system: SR
# SF-295 = test system: SF-295
# COLO 205 = test system: COLO 205
# DMS-273 = test system: DMS-273
# SK-MEL-5 = test system: SK-MEL-5
# NCI-H460 = test system: NCI-H460
# SK-MEL-2 = test system: SK-MEL-2
# KM12 = test system: KM12
# U-251 = test system: U-251
# M19-MEL = test system: M19-MEL
# HCT-15 = test system: HCT-15
# UACC-257 = test system: UACC-257
# CAKI-1 = test system: CAKI-1
# HOP-92 = test system: HOP-92
# HCT-116 = test system: HCT-116
# OVCAR-8 = test system: OVCAR-8
# K562 = test system: K562
# HT-29 = test system: HT-29
# SF-268 = test system: SF-268
# M14 = test system: M14
# IGROV-1 = test system: IGROV-1
# OVCAR-3 = test system: OVCAR-3
# NCI-H23 = test system: NCI-H23
# CCRF-CEM = test system: CCRF-CEM
# DMS-114 = test system: DMS-114
# UACC-62 = test system: UACC-62
# RPMI-8226 = test system: RPMI-8226
# SK-MEL-28 = test system: SK-MEL-28
# Malme-3M = test system: Malme-3M
# ACHN = test system: ACHN
# DLD-1 = test system: DLD-1
# MOLT-4 = test system: MOLT-4
# NCI-H226 = test system: NCI-H226
# TK-10 = test system: TK-10
# KM-20L2 = test system: KM-20L2
# SW-620 = test system: SW-620
# HCC 2998 = test system: HCC 2998
# OVCAR-5 = test system: OVCAR-5
# UO-31 = test system: UO-31
# OVCAR-4 = test system: OVCAR-4
# SK-OV-3 = test system: SK-OV-3
# HOP-18 = test system: HOP-18
# MCF7 = test system: MCF7
# DU-145 = test system: DU-145
# EKVX = test system: EKVX
smiles,measurement,setting,value
O=C(c1ccccc1)c1c(CC(O)c2ccncc2)n(C(=O)c2ccccc2)c2ccccc12 (stereo not drawn),GI50,HL-60,18.2 µM (inactive)
same,GI50,NCI-H522,13.2 µM (inactive)
same,GI50,A549,17.8 µM (inactive)
same,GI50,LXFL 529,18.8 µM (inactive)
same,GI50,SNB-19,21.8 µM (inactive)
same,GI50,SNB-75,7.83 µM (inactive)
same,GI50,786-0,17 µM (inactive)
same,GI50,SF-539,17.9 µM (inactive)
same,GI50,HOP-62,16.4 µM (inactive)
same,GI50,SR,16.6 µM (inactive)
same,GI50,SF-295,12.1 µM (inactive)
same,GI50,COLO 205,17.9 µM (inactive)
same,GI50,DMS-273,17.9 µM (inactive)
same,GI50,SK-MEL-5,16.1 µM (inactive)
same,GI50,NCI-H460,18.7 µM (inactive)
same,GI50,SK-MEL-2,16 µM (inactive)
same,GI50,KM12,19.2 µM (inactive)
same,GI50,U-251,17.7 µM (inactive)
same,GI50,M19-MEL,17.9 µM (inactive)
same,GI50,HCT-15,17.4 µM
same,GI50,UACC-257,17.5 µM (inactive)
same,GI50,CAKI-1,22.3 µM (inactive)
same,GI50,HOP-92,15 µM (inactive)
same,GI50,HCT-116,15.6 µM (inactive)
same,GI50,OVCAR-8,30 µM (inactive)
same,GI50,K562,> 10 µM (inactive)
same,GI50,HT-29,17.3 µM (inactive)
same,GI50,SF-268,20.7 µM (inactive)
same,GI50,M14,16.9 µM (inactive)
same,GI50,IGROV-1,16.7 µM (inactive)
same,GI50,OVCAR-3,14 µM (inactive)
same,GI50,NCI-H23,16 µM (inactive)
same,GI50,CCRF-CEM,25.1 µM (inactive)
same,GI50,DMS-114,16.9 µM (inactive)
same,GI50,UACC-62,16.5 µM (inactive)
same,GI50,RPMI-8226,19.6 µM (inactive)
same,GI50,SK-MEL-28,17.7 µM (inactive)
same,GI50,Malme-3M,18 µM (inactive)
same,GI50,ACHN,20.2 µM (inactive)
same,GI50,DLD-1,26.2 µM (inactive)
same,GI50,MOLT-4,18.2 µM (inactive)
same,GI50,NCI-H226,14.7 µM (inactive)
same,GI50,TK-10,28.6 µM (inactive)
same,GI50,KM-20L2,17.7 µM (inactive)
same,GI50,SW-620,18.7 µM (inactive)
same,GI50,HCC 2998,17.1 µM (inactive)
same,GI50,OVCAR-5,15.8 µM (inactive)
same,GI50,UO-31,14.6 µM (inactive)
same,GI50,OVCAR-4,15.8 µM (inactive)
COc1ccc(/C=N/NC(=O)c2sc(=S)n(-c3ccccc3)c2N)cc1,GI50,HL-60,> 100 µM (inactive)
same,GI50,NCI-H522,42.1 µM (inactive)
same,GI50,A549,> 100 µM (inactive)
same,GI50,LXFL 529,51.2 µM (inactive)
same,GI50,SNB-19,28.1 µM (inactive)
same,GI50,SNB-75,1.6 µM (inactive)
same,GI50,SF-539,6.92 µM (inactive)
same,GI50,HOP-62,22.2 µM (inactive)
same,GI50,SR,> 100 µM (inactive)
same,GI50,SK-OV-3,11.2 µM (inactive)
same,GI50,SF-295,19.8 µM (inactive)
same,GI50,COLO 205,> 100 µM (inactive)
same,GI50,SK-MEL-5,71.4 µM (inactive)
same,GI50,NCI-H460,6.04 µM (inactive)
same,GI50,KM12,7.85 µM (inactive)
same,GI50,U-251,66.2 µM (inactive)
same,GI50,M19-MEL,> 100 µM (inactive)
same,GI50,UACC-257,> 100 µM (inactive)
same,GI50,HOP-92,9.51 µM (inactive)
same,GI50,HCT-116,91.6 µM (inactive)
same,GI50,OVCAR-8,44.7 µM (inactive)
same,GI50,HOP-18,39.4 µM (inactive)
same,GI50,K562,1.48 µM (inactive)
same,GI50,HT-29,73.8 µM (inactive)
same,GI50,SF-268,21.4 µM (inactive)
same,GI50,IGROV-1,> 100 µM (inactive)
same,GI50,OVCAR-3,83.9 µM (inactive)
same,GI50,NCI-H23,> 100 µM (inactive)
same,GI50,CCRF-CEM,> 100 µM (inactive)
same,GI50,UACC-62,89.1 µM (inactive)
same,GI50,SK-MEL-28,33.1 µM (inactive)
same,GI50,ACHN,20.7 µM (inactive)
same,GI50,DLD-1,> 100 µM (inactive)
same,GI50,MOLT-4,> 100 µM (inactive)
same,GI50,NCI-H226,> 100 µM (inactive)
same,GI50,TK-10,7.14 µM (inactive)
same,GI50,SW-620,> 100 µM (inactive)
same,GI50,HCC 2998,73.5 µM (inactive)
same,GI50,OVCAR-5,> 100 µM (inactive)
same,GI50,UO-31,> 100 µM (inactive)
O=C1C=C[C@@]23C[C@@H](NC4=C2C2=NCCc5c[nH]c(c52)C4=O)SC3=C1,GI50,A549,14.6 µM (inactive)
same,GI50,SNB-75,19.8 µM (inactive)
same,GI50,MCF7,3.82 µM (inactive)
same,GI50,M19-MEL,2.03 µM (inactive)
same,GI50,HOP-18,16.7 µM (inactive)
same,GI50,K562,4.74 µM (inactive)
same,GI50,NCI-H23,3.49 µM (inactive)
same,GI50,DU-145,18.2 µM (inactive)
same,GI50,SW-620,3.15 µM (inactive)
CC(C)C(NC(=O)OC(C)(C)C)C(=O)N(C)C(Cc1ccccc1)C(=O)N(C)C(C(=O)OCc1ccccc1)C(C)C (stereo not drawn) (Boc-Val-[NMeF]-[NMeV]-OBn; configuration not given here),GI50,HL-60,33.4 µM (inactive) and 19.5 µM (inactive)
same,GI50,NCI-H522,12.2 µM (inactive) and 22.8 µM (inactive)
same,GI50,A549,39.5 µM (inactive) and 46.8 µM (inactive)
same,GI50,786-0,> 100 µM (inactive)
same,GI50,HOP-62,85.9 µM (inactive)
same,GI50,SR,27.9 µM (inactive) and 22.6 µM (inactive)
same,GI50,SK-OV-3,> 100 µM (inactive)
same,GI50,SF-295,17.6 µM (inactive) and 34.6 µM (inactive)
same,GI50,COLO 205,37.7 µM (inactive) and 44.2 µM (inactive)
same,GI50,DMS-273,34.1 µM (inactive) and 33.8 µM (inactive)
same,GI50,SK-MEL-5,15.4 µM (inactive)
same,GI50,NCI-H460,39 µM (inactive) and 41 µM (inactive)
same,GI50,U-251,82.2 µM (inactive) and 43.8 µM (inactive)
same,GI50,HCT-15,67.1 µM and 79.3 µM
same,GI50,HCT-116,40 µM (inactive) and 28.4 µM (inactive)
same,GI50,OVCAR-8,74.6 µM (inactive) and 70.5 µM (inactive)
same,GI50,SF-268,> 100 µM (inactive)
same,GI50,M14,59.3 µM (inactive) and 94.4 µM (inactive)
same,GI50,IGROV-1,91.2 µM (inactive)
same,GI50,NCI-H23,37.1 µM (inactive) and 68.5 µM (inactive)
same,GI50,DMS-114,29.4 µM (inactive) and 30.5 µM (inactive)
same,GI50,UACC-62,81.8 µM (inactive)
same,GI50,SK-MEL-28,> 100 µM (inactive)
same,GI50,Malme-3M,> 100 µM (inactive)
same,GI50,EKVX,> 100 µM (inactive) and 62.1 µM (inactive)
same,GI50,NCI-H226,> 100 µM (inactive) and 73.5 µM (inactive)
same,GI50,TK-10,> 100 µM (inactive)
same,GI50,SW-620,75.2 µM (inactive)
same,GI50,HCC 2998,> 100 µM (inactive)
same,GI50,UO-31,85.3 µM (inactive) and 53.1 µM (inactive)
